Experiments:
[1] = biological target: Sigma non-opioid intracellular receptor 1 (Cavia porcellus, UniProt Q60492); assay: Displacement of [3H](+)-pentazocine from sigma1 receptor in guniea pig brain membrane assessed as inhibition constant by competitive binding assay; format: cell membranes
[2] = biological target: T1, Sigma intracellular receptor 2 (Rattus norvegicus, UniProt Q5U3Y7); assay: Displacement of [3H](+)-pentazocine from sigma2 receptor in rat liver membrane assessed as inhibition constant by competitive binding assay; format: cell membranes
T1 sequence (Q5U3Y7 whole entry): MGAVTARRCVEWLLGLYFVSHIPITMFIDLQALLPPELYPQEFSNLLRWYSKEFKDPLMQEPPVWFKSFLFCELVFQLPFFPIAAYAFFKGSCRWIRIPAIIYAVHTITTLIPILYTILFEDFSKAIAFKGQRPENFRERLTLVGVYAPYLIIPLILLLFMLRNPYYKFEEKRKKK

[3] = biological target: Albumin (Homo sapiens, UniProt P02768); assay: Binding affinity to human serum albumin measured after 60 mins by high performance affinity chromatography based LC-MS analysis; details: 1 h
[4] = Metabolic stability in human liver microsomes assessed as half-life at 10 uM measured after 120 mins by LC-MS/MS analysis; format: ADME, Microsome
[5] = biological target: Glutamate receptor ionotropic, NMDA 2B (Homo sapiens, UniProt Q13224); assay: Displacement of [3H]ifenprodil from human GluN2B receptor extracted from mouse LTK- cell membrane assessed as inhibition constant by competitive binding assay; format: cell membranes
[6] = mouse, microsomes, 1.5 h
Description: Drug metabolism in mouse liver microsomes assessed as glucuronic acid conjugates formation measured after 90 mins in presence of UDP-GA by LC-MS analysis

[7] = physchem; details: n-octanol/3-morpholinopropanesulfonic acid (MOPS) buffer, pH 7.4
[8] = in vitro; details: mouse, liver microsomes
Description: Metabolic stability in mouse liver microsomes assessed as parent compound remaining measured after 90 mins in presence of NADPH by HPLC analysis

Albumin, sequence (P02768 whole entry): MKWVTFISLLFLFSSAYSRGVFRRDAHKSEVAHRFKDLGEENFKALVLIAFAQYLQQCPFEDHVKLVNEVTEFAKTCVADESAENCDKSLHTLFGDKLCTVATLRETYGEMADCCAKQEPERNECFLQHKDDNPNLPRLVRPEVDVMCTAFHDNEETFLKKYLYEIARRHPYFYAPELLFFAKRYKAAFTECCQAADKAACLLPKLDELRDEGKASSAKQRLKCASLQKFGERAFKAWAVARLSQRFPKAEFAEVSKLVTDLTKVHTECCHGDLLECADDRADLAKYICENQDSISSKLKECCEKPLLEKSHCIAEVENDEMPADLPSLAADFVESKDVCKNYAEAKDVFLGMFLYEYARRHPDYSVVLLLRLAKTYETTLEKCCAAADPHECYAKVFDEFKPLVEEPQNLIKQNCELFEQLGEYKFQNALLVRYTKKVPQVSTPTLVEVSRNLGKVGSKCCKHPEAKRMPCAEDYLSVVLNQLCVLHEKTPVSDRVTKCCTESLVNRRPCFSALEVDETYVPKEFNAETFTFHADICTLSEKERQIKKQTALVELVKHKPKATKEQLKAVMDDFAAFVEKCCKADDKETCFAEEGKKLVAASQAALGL
Sigma non-opioid intracellular receptor 1, sequence (Q60492 whole entry): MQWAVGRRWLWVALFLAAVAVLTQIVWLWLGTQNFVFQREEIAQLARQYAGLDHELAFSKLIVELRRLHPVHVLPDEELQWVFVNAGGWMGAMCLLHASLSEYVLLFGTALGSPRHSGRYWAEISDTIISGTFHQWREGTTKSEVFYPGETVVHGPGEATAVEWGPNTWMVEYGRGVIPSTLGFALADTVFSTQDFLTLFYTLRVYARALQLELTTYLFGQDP
Glutamate receptor ionotropic, NMDA 2B, sequence (Q13224 whole entry): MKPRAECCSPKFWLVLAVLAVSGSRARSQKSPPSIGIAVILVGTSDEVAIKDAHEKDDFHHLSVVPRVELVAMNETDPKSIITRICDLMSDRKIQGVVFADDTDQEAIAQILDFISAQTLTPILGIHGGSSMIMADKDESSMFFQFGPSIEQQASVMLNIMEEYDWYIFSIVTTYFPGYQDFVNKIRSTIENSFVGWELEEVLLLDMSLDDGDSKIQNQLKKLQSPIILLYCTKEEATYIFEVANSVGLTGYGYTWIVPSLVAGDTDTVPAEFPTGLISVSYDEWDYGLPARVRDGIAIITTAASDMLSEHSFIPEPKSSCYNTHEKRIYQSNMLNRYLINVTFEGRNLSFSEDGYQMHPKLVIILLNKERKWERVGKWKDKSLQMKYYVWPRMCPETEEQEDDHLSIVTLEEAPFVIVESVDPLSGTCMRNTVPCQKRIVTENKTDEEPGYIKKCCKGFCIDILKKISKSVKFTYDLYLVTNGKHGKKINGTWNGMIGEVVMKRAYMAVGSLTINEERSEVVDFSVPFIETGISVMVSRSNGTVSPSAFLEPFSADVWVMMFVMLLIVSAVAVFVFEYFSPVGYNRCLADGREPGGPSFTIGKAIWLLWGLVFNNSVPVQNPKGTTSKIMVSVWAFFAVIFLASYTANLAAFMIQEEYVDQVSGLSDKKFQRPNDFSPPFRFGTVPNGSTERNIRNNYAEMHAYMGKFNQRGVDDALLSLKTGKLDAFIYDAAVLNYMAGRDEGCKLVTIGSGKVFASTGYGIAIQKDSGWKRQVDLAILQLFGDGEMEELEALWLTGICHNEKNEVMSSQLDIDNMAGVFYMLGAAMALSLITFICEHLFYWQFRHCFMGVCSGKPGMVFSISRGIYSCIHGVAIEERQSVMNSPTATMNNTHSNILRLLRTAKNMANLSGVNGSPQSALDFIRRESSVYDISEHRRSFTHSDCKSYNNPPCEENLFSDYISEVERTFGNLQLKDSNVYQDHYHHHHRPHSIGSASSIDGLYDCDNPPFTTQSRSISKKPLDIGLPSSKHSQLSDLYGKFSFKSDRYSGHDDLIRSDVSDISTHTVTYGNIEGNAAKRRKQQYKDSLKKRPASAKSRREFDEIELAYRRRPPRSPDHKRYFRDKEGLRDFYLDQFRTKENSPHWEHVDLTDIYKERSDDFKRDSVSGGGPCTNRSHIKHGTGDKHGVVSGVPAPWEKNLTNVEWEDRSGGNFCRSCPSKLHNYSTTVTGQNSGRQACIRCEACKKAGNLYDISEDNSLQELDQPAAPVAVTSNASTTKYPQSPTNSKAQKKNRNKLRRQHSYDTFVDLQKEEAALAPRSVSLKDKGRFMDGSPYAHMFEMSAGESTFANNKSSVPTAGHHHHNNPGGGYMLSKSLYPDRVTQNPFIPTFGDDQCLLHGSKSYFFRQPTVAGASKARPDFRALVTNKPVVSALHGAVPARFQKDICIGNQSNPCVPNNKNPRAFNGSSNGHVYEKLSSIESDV

Row | Ki [1] [nM] | Ki [2] [nM] | Activity [3] [%] | half-life at 10 µM [4] [min] | Ki [5] [nM] | Drug metabolism [6] | logD [7] | remaining at 1.5 h [8] [%] | SMILES
1 | 56 | 388 |  |  |  |  |  |  | C[C@H](CN1CCC(Cc2ccccc2)CC1)[C@H](O)c1ccc2[nH]ncc2c1 (stereo in doubt; 10ab)
2 | 523 | 556 | 91 |  |  |  |  |  | C[C@@H]([C@@H](O)c1ccc2[nH]ncc2c1)N1CCC(Cc2ccccc2)CC1
3 | 672 | 112 | 90 |  |  |  |  |  | C[C@H]([C@H](O)c1ccc2[nH]ncc2c1)N1CCC(Cc2ccccc2)CC1 (stereo in doubt; 11c)
4 | 313 | 263 | 92 |  |  |  |  |  | C[C@H]([C@@H](O)c1ccc2[nH]ncc2c1)N1CCC(Cc2ccccc2)CC1
5 | 34 | 19 |  |  |  |  |  |  | C[C@H]([C@H](O)c1ccc2[nH]ncc2c1)N1CCC(Cc2ccccc2)CC1 (stereo in doubt; 11cd)
6 | 96 | 33 | 92 |  |  |  |  |  | C[C@@H]([C@H](O)c1ccc2[nH]ncc2c1)N1CCC(Cc2ccccc2)CC1 (stereo in doubt; 11a)
7 |  |  | 82 | 23.7 | 135 | metabolite_detected | 1.9 | 5 | C[C@@H](CN1CCC(Cc2ccccc2)CC1)[C@@H](O)c1ccc(O)cc1
8 | 38 | 245 |  |  |  |  |  |  | C[C@@H]([C@H](O)c1ccc2[nH]ncc2c1)N1CCC(Cc2ccccc2)CC1 (stereo in doubt; 11ab)
9 | 21 | 209 | 89 |  |  |  |  |  | C[C@@H](CN1CCC(Cc2ccccc2)CC1)[C@@H](O)c1ccc2[nH]ncc2c1
10 | 24 | 111 | 89 |  |  |  |  |  | C[C@H](CN1CCC(Cc2ccccc2)CC1)[C@H](O)c1ccc2[nH]ncc2c1 (stereo in doubt; 10a)
11 | 43 | 42 | 93 |  |  |  |  |  | C[C@H](CN1CCC(Cc2ccccc2)CC1)[C@@H](O)c1ccc2[nH]ncc2c1
12 |  |  | 84 |  |  | metabolite_detected | 1.43 | 91.4 | CC(C(O)c1ccc(O)cc1)N1CCC(Cc2ccccc2)CC1 (configuration not stated) [IFENPRODIL]
13 | 44 | 57 |  |  |  |  |  |  | C[C@@H](CN1CCC(Cc2ccccc2)CC1)[C@H](O)c1ccc2[nH]ncc2c1 (stereo in doubt; 10cd)
14 | 46 | 269 | 93 |  |  |  |  |  | C[C@@H](CN1CCC(Cc2ccccc2)CC1)[C@H](O)c1ccc2[nH]ncc2c1 (stereo in doubt; 10c)

Reference: ChEMBL document CHEMBL6092187, “Enantiomerically Pure Indazole Bioisosteres of Ifenprodil and Ro 25-6981 as Negative Allosteric Modulators of NMDA Receptors with the GluN2B Subunit” (J Med Chem, 2024)
